Values quoted from earlier work in patent publication US20030004141A1, “Medical devices, compositions and methods for treating vulnerable plaque” (priority 2001, published 2003).

Details: general statement from cited pre-clinical and clinical studies

CNC(=O)[C@@H](NC(=O)[C@H](CC(C)C)[C@H](O)C(=O)NO)C(C)(C)C [marimastat]
in vivo toxicity: minimal in vivo toxicity
